Experimental data published in PubChem BioAssay (NCI).
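Results reflect a 48-hour exposure of cells in 96-well plates to compound at five concentrations. TGI denotes the concentration required for complete inhibition of growth.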

How the values were obtained:
Assay in all cases: NCI tumour cell line growth inhibition, 48 h
EKVX NSCLC = tested on: EKVX NSCLC
SN12C renal = tested on: SN12C renal
UACC-62 melanoma = tested on: UACC-62 melanoma
DLD-1 colon = tested on: DLD-1 colon
DMS 114 small cell lung = tested on: DMS 114 small cell lung
KM20L2 colon = tested on: KM20L2 colon
LXFL 529 NSCLC = tested on: LXFL 529 NSCLC
M19-MEL melanoma = tested on: M19-MEL melanoma
SNB-78 CNS = tested on: SNB-78 CNS
DMS 273 small cell lung = tested on: DMS 273 small cell lung
XF 498 CNS = tested on: XF 498 CNS
HOP-18 NSCLC = tested on: HOP-18 NSCLC
RXF-631 renal = tested on: RXF-631 renal

Row | Structure (SMILES) | TGI (EKVX NSCLC) | TGI (SN12C renal) | TGI (UACC-62 melanoma) | other results
1 | COc1ccc(NC2Oc3cc4c(cc3C(c3cc(OC)c(OC)c(OC)c3)C2C)OCO4)cc1 (stereo not drawn) | 34.1 µM | > 81.5 µM | > 100 µM | 
2 | Cc1ccc(C2=Nc3c(c(C)nn3-c3ccccc3)N=C(C(=O)O)C2)cc1 | > 10 µM | > 10 µM | > 10 µM | 
3 | CC1CC(C#N)=C2NCCCCN2C1=O (stereo not drawn) | > 100 µM | > 100 µM | > 100 µM | 
4 | O=C(OCc1ccccc1)OOC(=O)OCc1ccccc1 | > 100 µM | > 100 µM | > 100 µM | TGI (DLD-1 colon): > 100 µM; TGI (DMS 114 small cell lung): > 100 µM; TGI (KM20L2 colon): > 100 µM; TGI (LXFL 529 NSCLC): > 100 µM; TGI (M19-MEL melanoma): > 100 µM; TGI (SNB-78 CNS): > 100 µM
5 | Cc1ccc(C(=O)Nc2ccc(CP(=O)(O)O)cc2)cc1NC(=O)c1cccc(NC(=O)Nc2cccc(C(=O)Nc3cc(C(=O)Nc4ccc(CP(=O)(O)O)cc4)ccc3C)c2)c1 | > 100 µM | > 100 µM | > 100 µM | 
6 | CN(O)C(=O)Cc1ccc(OCc2cccc(Cl)c2)cc1 | > 100 µM | > 100 µM | > 100 µM | 
7 | OCc1ccccc1C1CSCSC1 |  | > 100 µM | > 100 µM | TGI (DLD-1 colon): > 100 µM; TGI (DMS 114 small cell lung): > 100 µM; TGI (DMS 273 small cell lung): > 100 µM; TGI (LXFL 529 NSCLC): > 100 µM; TGI (M19-MEL melanoma): > 100 µM; TGI (SNB-78 CNS): > 100 µM; TGI (XF 498 CNS): > 100 µM
8 | CC(C)c1c(P(=O)(c2ccccc2)c2ccccc2)n(C)c2ccccc12 | > 100 µM | > 100 µM |  | 
9 | CCN(CCCN(CC)C(=O)N[C@@H](Cc1ccccc1)C(=O)NC)C(=O)N[C@@H](Cc1ccccc1)C(=O)NC | > 100 µM |  | > 100 µM | 
10 | CCOP(=O)(OCC)/C(F)=C/c1ccccc1 | > 100 µM | > 100 µM | > 100 µM | 
11 | c1ccc(N=c2snc(-c3ccccc3)s2)cc1 |  | > 100 µM | > 100 µM | TGI (DLD-1 colon): > 100 µM; TGI (DMS 114 small cell lung): > 100 µM; TGI (DMS 273 small cell lung): > 100 µM; TGI (HOP-18 NSCLC): > 100 µM; TGI (KM20L2 colon): > 100 µM; TGI (LXFL 529 NSCLC): > 100 µM; TGI (M19-MEL melanoma): > 100 µM; TGI (SNB-78 CNS): > 100 µM
12 | CC(C)/C(Cl)=N\OC(=O)NNc1ccccc1 | 37.3 µM | > 74.7 µM | > 100 µM | 
13 | O=C(/C=C/c1cccs1)c1ccc(Cl)cc1 | > 100 µM | > 100 µM | > 100 µM | 
14 | O=C(O)c1ccc(NS(=O)(=O)Cc2ccccc2)cc1 | > 100 µM | > 100 µM | > 100 µM | 
15 | O=C1/C(=C/c2ccc(F)cc2)CNC/C1=C\c1ccc(F)cc1 | 4.64 µM | 6.71 µM |  | 
16 | O=C1OC[C@@H]2Cc3c([nH]c4ccccc34)[C@@H](c3ccc(O)cc3)N12 | > 100 µM | > 89.7 µM | 69.8 µM | 
17 | Cc1oc2nc(N(C)C)n3nnnc3c2c1C | > 100 µM | > 100 µM | > 100 µM | 

Row | Structure (SMILES) | TGI (EKVX NSCLC) | TGI (SN12C renal) | TGI (UACC-62 melanoma) | other results
18 | CCN(CC)CCCn1c(=O)c2cccnc2n2c3c(=O)n(C)c(=O)n(C)c3nc12 | > 100 µM | > 100 µM | > 100 µM | 
19 | CN(C)c1ccc(/C(Br)=C2\OC(=O)c3ccccc32)cc1 | > 100 µM | > 100 µM | > 100 µM | 
20 | CC1=C2c3ccccc3N(C(=O)/C=C/C(=O)O)[C@H]2[C@H]2C(=O)OC(=O)[C@H]2C1 | > 10 µM | > 10 µM | > 10 µM | 
21 | Cc1nc(Cl)c(CBr)c(Cl)n1 | 11.8 µM | 3.75 µM | 3.46 µM | 
22 | CC1=CC(=O)N(n2c(C)n[nH]c2=O)C1=O | > 100 µM | > 100 µM | > 100 µM | 
23 | O=C1/C(=C/c2ccc(Br)s2)NC(=S)N1CN1CCOCC1 | > 100 µM | > 100 µM | 48.6 µM | 
24 | c1ccc2c(c1)CCCN1CCc3ccccc3C21 (stereo not drawn) | > 100 µM | > 100 µM | > 100 µM | 
25 | CN1CCN(C(=S)N(C)C(=O)c2ccc(Cl)cc2)CC1 |  | > 100 µM | > 100 µM | 
26 | CC(=O)Nc1ccc(Cl)c(Cl)c1 | > 100 µM | > 100 µM | > 100 µM | TGI (DLD-1 colon): > 100 µM; TGI (DMS 114 small cell lung): > 100 µM; TGI (DMS 273 small cell lung): > 100 µM; TGI (KM20L2 colon): > 100 µM; TGI (LXFL 529 NSCLC): > 100 µM; TGI (M19-MEL melanoma): > 100 µM; TGI (SNB-78 CNS): > 100 µM
27 | Cc1nc2ccc([N+](=O)[O-])cc2c(=O)n1C(=S)Nc1cccc(Cl)c1 | > 100 µM | 51.4 µM | 29.1 µM | 
28 | CC1=CC=CC(C)(C)CC1(O[Si](C)(C)C)C(F)(F)F (stereo not drawn) | > 100 µM | > 100 µM | > 100 µM | 
29 | COc1ccc2c(c1)C(=O)c1ccccc1C2 | > 100 µM | > 100 µM | > 100 µM | 
30 | CN1C(=O)CN(NC(=O)C2=C(O)c3ccc(Br)cc3S(=O)(=O)N2)C1=S | > 100 µM | > 100 µM | > 100 µM | 
31 | CCOC(=O)C1CC(O)C(=O)N1C (stereo not drawn) | > 100 µM | > 100 µM | > 100 µM | 
32 | Cc1cc2cccc(Cl)c2nc1C(=O)c1ccccc1 |  | > 100 µM | > 100 µM | TGI (DLD-1 colon): > 100 µM; TGI (DMS 114 small cell lung): > 100 µM; TGI (DMS 273 small cell lung): > 100 µM; TGI (HOP-18 NSCLC): > 100 µM; TGI (KM20L2 colon): > 100 µM; TGI (LXFL 529 NSCLC): > 100 µM; TGI (M19-MEL melanoma): > 100 µM; TGI (RXF-631 renal): > 100 µM; TGI (SNB-78 CNS): > 100 µM; TGI (XF 498 CNS): > 100 µM
33 | COc1ccc(CNc2nc3ccc(C(F)(F)F)cc3nc2-c2ccccc2)cc1OC | > 100 µM | > 100 µM | > 100 µM | TGI (DMS 273 small cell lung): > 100 µM; TGI (HOP-18 NSCLC): > 100 µM; TGI (KM20L2 colon): > 100 µM; TGI (LXFL 529 NSCLC): > 100 µM; TGI (M19-MEL melanoma): > 100 µM; TGI (RXF-631 renal): > 100 µM; TGI (SNB-78 CNS): > 100 µM; TGI (XF 498 CNS): > 100 µM
